Columns and labels:
AHR-LexA chimera = molecular target: T1, AHR-LexA chimera (UniProt P0A7C2+P30561); format: cell-based; details: for induction of lac Z activity over background: yeast GRS4 chimeric AHR-LexA system, average
T1 construct: expressed in transfected cells; host or cells: Saccharomyces cerevisiae strain GRS4 (with pTT8/hsp82) transformed with pEGAHRNΔ166 and pSH18-34
Method: Poon, D., Schroeder, S., Wang, C. […] Biol. 11, 4809-4821. […] (1 minute) then 50° C. (1 minute) and then 72° C. (1 minute) for 25 cycles.
β-Galactosidase assays carried out on the AHR-LexANΔ166 chimera system were performed as above except for the following changes. Yeast strains were grown from a single colony overnight at 30° C. in 2 ml of selection medium containing either 2% glucose or 2% galactose as a carbon source. Fifty microliters of this primary culture was used to inoculate a 1-ml culture of the same media containing appropriate concentrations of agonist dissolved in Me2SO. The culture was grown for 16-18 hours with vigorous shaking at room temperature. β-Galactosidase activity was determined by adding a 50-μl aliquot of the cultures to 650 μl of Z-buffer, permeabilizing the cells, and incubating with ONPG at 30° C. for 30 minutes. β-Galactosidase units were determined using the following formula: (A420)/(A600 of 1/10 dilution of cells×volume of culture×length of incubation))×1000.
As described above, strain GRS4 was transformed with a AHR-LexAN 166 fusion plasmid, pEGAHRNΔ166 containing the chimeric Ah receptor and a LexA operator reporter plasmid pSH18-34. In this system, expression of the reporter gene was dependent on pEGAHRNΔ166 expresson and on the presence of agonist. […] The dose-response curves obtained from this chimeric receptor system closely paralleled those of the complete AHR/ARNT/DRE pathway expressed in A303 cells.

murine Ah-receptor = molecular target: T2, murine Ah-receptor (Mus musculus, UniProt P30561); assay: photoaffinity labeling with [125I]-2-azido-3-iodo-7,8-dibromodibenzo-p-dioxin, competition by agonist; format: binding; details: excess of β-naphthoflavone; murine cDNA expressed in COS-1 cells, cytosolic fraction
T2 construct: The resulting full length murine Ah-receptor clone was then subcloned into the SpeI and HindIII sites of pSV-Sport1; expressed in transfected cells; host or cells: COS-1 cells electroporated with pmuAhR (cytosol); also in vitro translation in TNT rabbit reticulocyte lysate (Promega)
T2 sequence (P30561 10-805 S74T/M324I/F348L/P471L/N533S/M589L/T758A limits assumed): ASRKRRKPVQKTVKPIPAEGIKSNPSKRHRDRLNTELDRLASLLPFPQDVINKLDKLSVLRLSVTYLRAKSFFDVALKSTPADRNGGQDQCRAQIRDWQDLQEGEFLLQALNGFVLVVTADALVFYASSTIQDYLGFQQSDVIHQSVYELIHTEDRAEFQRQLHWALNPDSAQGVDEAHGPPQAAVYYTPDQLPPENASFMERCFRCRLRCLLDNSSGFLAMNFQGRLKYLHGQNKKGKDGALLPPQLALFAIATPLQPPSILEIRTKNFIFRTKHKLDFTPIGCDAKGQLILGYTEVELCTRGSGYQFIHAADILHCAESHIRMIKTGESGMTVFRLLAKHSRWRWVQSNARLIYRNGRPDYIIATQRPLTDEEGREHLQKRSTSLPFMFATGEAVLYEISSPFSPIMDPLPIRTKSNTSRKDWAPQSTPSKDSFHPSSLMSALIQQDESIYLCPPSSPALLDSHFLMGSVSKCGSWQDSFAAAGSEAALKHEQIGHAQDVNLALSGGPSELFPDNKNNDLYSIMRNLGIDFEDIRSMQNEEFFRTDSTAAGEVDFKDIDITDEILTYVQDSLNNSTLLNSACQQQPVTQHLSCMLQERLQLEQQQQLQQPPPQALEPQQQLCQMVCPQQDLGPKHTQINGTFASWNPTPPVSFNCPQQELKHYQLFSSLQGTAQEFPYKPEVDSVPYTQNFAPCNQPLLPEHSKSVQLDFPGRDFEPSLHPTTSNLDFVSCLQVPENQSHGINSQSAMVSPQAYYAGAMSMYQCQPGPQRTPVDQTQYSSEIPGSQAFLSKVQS
Method: (§1) Photoaffinity labeling using the ligand, [^125I]-2-azido-3-iodo-7,8-dibromodibenzo-p-dioxin (specific activity=0.5 μCiμl), was carried out in 50 μl reactions in MENG buffer. Samples were incubated with 0.25 μCi of ligand (0.1 pmoles) ±100 nM β-naphthoflavone 30 minutes at room temperature, cooled on ice and incubated with one fifth of charcoal/gelatin (3%/0.3% w/v) for 30 minutes on ice. The charocal/gelatin was subjected to centrifugation at 14,000 rpm for 5 minutes at 4° C. and the supernatant was irradiated with ultraviolet light at 0.8 J/cm2 followed by addition of 300 mM β-mercaptoethanol. Acetone precipitates were resuspended in 1×Laemmli sample buffer and subjected to 7.5% SDS-PAGE and autoradiograph as described in Sambrook, J., Fritsch, E. F., Maniatis, T., Molecular Cloning: A Laboratory Manual/second edition (Cold Spring Harbor Laboratory Press, 1989).
(§2) Photoaffinity labeling of murine (muAhR) and human (huAhR) Ah-receptors expressed in COS-1 cells. […]
(§3) Experiments were carried out using the TNT Coupled Reticulocyte Lysate System (PROMEGA). […] The efficiency of expression was analyzed in parallel experiments utilizing ^35S-methionine labeling and autoradiography and Western blot analysis using affinity-purified goat antibody raised against an N-terminal peptide derived from the murine Ah-receptor. […]

human Ah-receptor = molecular target: T3, human Ah-receptor (Homo sapiens, UniProt P35869, F659I); assay: as above; format: binding; details: excess of β-naphthoflavone; human cDNA expressed in COS-1 cells, cytosolic fraction
T3 construct: 102 nucleotides downstream of the stop codon of the full length human Ah-receptor cDNA clone; expressed in transfected cells; host or cells: COS-1 cells electroporated with phuAhR (cytosol, 10 mM molybdate); also in vitro translation in TNT rabbit reticulocyte lysate (Promega)
T3 sequence (P35869 11-848 F659I): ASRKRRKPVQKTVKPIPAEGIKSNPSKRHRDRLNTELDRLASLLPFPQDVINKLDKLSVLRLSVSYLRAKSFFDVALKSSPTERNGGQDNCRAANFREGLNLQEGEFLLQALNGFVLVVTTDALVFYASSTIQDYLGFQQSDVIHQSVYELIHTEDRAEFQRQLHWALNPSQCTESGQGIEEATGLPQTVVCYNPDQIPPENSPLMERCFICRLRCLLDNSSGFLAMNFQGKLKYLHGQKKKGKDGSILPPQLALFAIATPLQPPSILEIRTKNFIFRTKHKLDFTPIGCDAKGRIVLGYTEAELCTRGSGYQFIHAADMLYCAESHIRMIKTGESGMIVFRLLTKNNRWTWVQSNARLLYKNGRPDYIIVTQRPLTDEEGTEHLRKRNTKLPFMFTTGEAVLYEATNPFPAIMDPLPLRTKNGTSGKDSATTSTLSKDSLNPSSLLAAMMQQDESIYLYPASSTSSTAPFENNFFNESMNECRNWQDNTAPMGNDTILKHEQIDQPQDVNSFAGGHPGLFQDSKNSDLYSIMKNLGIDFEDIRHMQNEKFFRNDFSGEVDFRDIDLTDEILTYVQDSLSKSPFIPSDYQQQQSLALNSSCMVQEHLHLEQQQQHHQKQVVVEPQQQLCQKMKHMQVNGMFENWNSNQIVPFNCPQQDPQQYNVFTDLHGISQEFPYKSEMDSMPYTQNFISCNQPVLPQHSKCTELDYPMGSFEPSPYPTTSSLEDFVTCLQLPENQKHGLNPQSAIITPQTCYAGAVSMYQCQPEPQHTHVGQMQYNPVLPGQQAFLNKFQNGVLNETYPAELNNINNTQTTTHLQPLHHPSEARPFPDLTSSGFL
Method: as §1, §2, §3

AHR = details: reported, Knutson and Poland (1981); read-out: AHR binding constants (KD values); cited from earlier work
full-length human AHR = full-length human AHR (Homo sapiens, UniProt P35869, F659I); details: for activation of the AHR over background (β-galactosidase): yeast A303 AHR/ARNT/DRE system, average of at least three independent experiments
full-length human AHR, sequence (P27540 1-774 isoform P27540-2 partner, one chain of several): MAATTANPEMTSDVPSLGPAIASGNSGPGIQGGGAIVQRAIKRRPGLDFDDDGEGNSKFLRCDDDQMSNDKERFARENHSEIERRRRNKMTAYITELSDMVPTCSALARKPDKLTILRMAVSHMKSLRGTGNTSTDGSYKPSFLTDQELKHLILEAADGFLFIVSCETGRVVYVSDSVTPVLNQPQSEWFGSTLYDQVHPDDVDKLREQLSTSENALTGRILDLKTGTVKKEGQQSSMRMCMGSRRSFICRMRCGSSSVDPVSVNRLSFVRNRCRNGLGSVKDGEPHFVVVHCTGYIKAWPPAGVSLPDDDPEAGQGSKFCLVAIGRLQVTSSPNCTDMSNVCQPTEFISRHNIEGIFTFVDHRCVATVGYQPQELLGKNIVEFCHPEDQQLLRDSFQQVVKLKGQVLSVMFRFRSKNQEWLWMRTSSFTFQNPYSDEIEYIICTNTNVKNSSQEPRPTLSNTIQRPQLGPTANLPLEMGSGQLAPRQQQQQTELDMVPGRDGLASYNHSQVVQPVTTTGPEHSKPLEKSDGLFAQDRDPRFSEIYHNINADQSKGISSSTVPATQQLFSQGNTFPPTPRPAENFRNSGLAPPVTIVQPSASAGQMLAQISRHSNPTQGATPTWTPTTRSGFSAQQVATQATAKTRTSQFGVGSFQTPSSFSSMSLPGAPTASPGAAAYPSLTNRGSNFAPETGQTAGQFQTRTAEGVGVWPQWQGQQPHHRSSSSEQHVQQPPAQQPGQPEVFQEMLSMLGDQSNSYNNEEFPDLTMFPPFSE

T1 sequence (P0A7C2+P30561 fused with the stated changes): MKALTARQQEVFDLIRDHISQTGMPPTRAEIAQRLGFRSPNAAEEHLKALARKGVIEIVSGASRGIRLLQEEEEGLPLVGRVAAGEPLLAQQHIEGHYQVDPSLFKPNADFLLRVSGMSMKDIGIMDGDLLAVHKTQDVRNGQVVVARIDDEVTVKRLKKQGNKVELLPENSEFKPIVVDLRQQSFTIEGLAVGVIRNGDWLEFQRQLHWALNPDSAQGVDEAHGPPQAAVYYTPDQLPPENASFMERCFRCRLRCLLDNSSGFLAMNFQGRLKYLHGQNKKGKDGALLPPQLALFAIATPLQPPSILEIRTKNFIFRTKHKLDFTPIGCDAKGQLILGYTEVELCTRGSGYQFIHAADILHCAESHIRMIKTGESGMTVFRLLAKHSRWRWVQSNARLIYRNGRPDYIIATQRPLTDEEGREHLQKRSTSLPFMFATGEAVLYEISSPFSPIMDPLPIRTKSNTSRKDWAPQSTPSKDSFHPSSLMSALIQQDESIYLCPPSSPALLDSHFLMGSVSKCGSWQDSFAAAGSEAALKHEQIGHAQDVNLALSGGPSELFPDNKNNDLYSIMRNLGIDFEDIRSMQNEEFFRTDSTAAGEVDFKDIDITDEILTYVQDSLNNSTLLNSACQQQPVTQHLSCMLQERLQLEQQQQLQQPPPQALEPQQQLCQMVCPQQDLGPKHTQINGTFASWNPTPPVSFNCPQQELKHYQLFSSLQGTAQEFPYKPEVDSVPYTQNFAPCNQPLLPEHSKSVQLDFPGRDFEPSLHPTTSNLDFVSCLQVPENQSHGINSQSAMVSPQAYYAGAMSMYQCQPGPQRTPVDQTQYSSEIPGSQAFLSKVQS

SMILES | induction of lac Z activity over background (AHR-LexA chimera) | EC50 (AHR-LexA chimera; yeast GRS4 with pEGAHRNΔ166 and pSH18-34, agonist 16-18 hours, read-out: EC50 (LexA operator lacZ reporter)) | inhibition of photoaffinity labeling of the receptor (murine Ah-receptor) | inhibition of photoaffinity labeling of the receptor (human Ah-receptor) | Kd (AHR) | EC50 (full-length human AHR) | activation of the AHR over background (β-galactosidase) (full-length human AHR)
O=c1cc(-c2ccccc2)oc2ccc3ccccc3c12 [βNF, β-naphthoflavone] | 90 fold | 0.061 µM | inhibited the labeling of the receptors | inhibited the labeling of the receptors | […] | 0.079 µM | 12 fold
O=c1cc(-c2ccccc2)oc2c1ccc1ccccc12 [αNF, α-naphthoflavone] | 90 fold | – | – | – | 0.029 µM | 0.8 µM | 12 fold
